How the values were obtained:
SW480 cells = experiment: Peptide binding to colorectal cancer cells on confocal microscopy (SW480); assay type: cell-based, human; conditions: SW480, 5 μM, 3 min
Description: HT29, SW480, and SW620 cells (˜10^3) were grown on cover slips to ˜80% confluence. The cells were washed 1× with PBS and incubated with 5 μM of QRH*-Cy5.5 and PEH*-Cy5.5 for 3 min at RT. The cells were then washed 3× in PBS, fixed with 4% paraformaldehyde (PFA) for 5 min, washed 1× with PBS, and then mounted on glass slides with ProLong Gold reagent containing DAPI (Invitrogen). Confocal fluorescence images were collected with FITC, Cy5.5, and DAPI filters (Leica Inverted SPSX Confocal Microscope System) using a 63× oil-immersion objective. Fluorescence intensities from 5 cells in 2 independent images were quantified using custom Matlab (Mathworks) software.
We assessed binding of QRH*-Cy5.5 to a panel of colorectal cancer cells that vary in EGFR expression level on confocal microscopy. We observed binding of QRH*-Cy5.5 to the surface (arrows) of HT29, SW480, and SW620 cells with decreasing strength, FIG. 3A-C, scale bars 30 μm. […] Results are an average of 10 cells from 2 independent images. EGFR expression is shown on Western blot, FIG. 3H.

human colonic dysplasia = experiment: Binding of EGFR peptide and antibody to human colonic dysplasia specimens, confocal microscopy; conditions: for log transformed fluorescence intensity, mean (±std): 5 μM, 10 min
Description: For the in vivo fluorescence images of mouse colon, the T/B ratios for flat dysplasia and polyps were log-transformed to improve normality. The fold-change between classification pairs was estimated using the anti-log of the difference in the log-transformed data. Differences in results between the experimental and control peptides were evaluated on t-test. *P<0.05 was considered significant. Similar methods were used to evaluate the ex vivo fluorescence images of human colonic specimens. The results were plotted on a receiver-operator characteristic (ROC) curve. Co-localization of peptide and antibody binding was evaluated on Pearson's correlation coefficient. All analyses were performed using custom Matlab software (MathWorks Inc).
Specimens of human colonic mucosa were obtained from biopsy during routine colonoscopy, frozen in OCT, cut in 10 μm sections, and incubated with QRH*-Cy5.5 (5 μM) in 1×PBS for 10 min at RT. The sections were washed 3× with PBS and incubated overnight at 4° C. with 1:1000 dilution of primary monoclonal rabbit anti-EGFR antibody (Cell Signaling Technology, #4267, isotype IgG). The sections were washed with PBS 3× and incubated with 1:500 dilution of Alexa Fluor 488-labeled secondary goat anti-rabbit antibody (Invitrogen) for 1 hour at RT. The sections were washed with PBS 3×, and fixed with 4% PFA for 10 min. The sections were then washed with PBS 1×, and mounted with ProLong Gold reagent containing DAPI (Invitrogen). Confocal fluorescence images were collected with DAPI, FITC and Cy5.5 filters with 20× objective (Leica TCS SP5 Microsystems). The mean fluorescence intensities from 3 boxes (dimensions of 30×30 μm2) located completely within the surface epithelium of each specimen were measured. […] Adjacent sections were processed for routine histology (H&E) that was reviewed by two gastrointestinal pathologists (SRO and HDA).

EGFR = EGFR (Homo sapiens, UniProt P00533); experiment: Co-localization of EGFR peptide and anti-EGFR antibody binding on colorectal cancer cells; assay type: cell-based; design: endogenous in cells; host or cells: HT29 human colorectal adenocarcinoma cells (ATCC)
Description: We evaluated co-localization of binding by the QRH*-Cy5.5 peptide and a validated anti-EGFR antibody on cells that overexpress EGFR. A panel of colorectal cancer cells (HT29, SW480, and SW620) was grown on cover slips to […]. QRH*-Cy5.5 at 5 μM concentration was incubated with each cell line for 1 hour at 4° C. The cells were washed and fixed with 4% PFA for 5 min. The cells were incubated with primary anti-EGFR antibody and secondary AF488-labeled antibody, as described previously. We applied the peptide rather than the antibody to the cells first because the peptide has a lower affinity and in the lower concentration (<10 μM) is less likely to interfere with antibody binding. Confocal fluorescence images were collected with FITC, Cy5.5, and DAPI filters using a 63× oil-immersion objective.

[1] = test system: dysplastic crypts in polyps; experiment: Immunofluorescence on mouse colon polyp specimens; conditions: OCT embedded polyp specimens
Description: Specimens of flat dysplasia in mouse colon were formalin fixed and processed as described above. Specimens of polypoid dysplasia in mouse colon were frozen in OCT (Sakura Finetek), cut in 10 μm sections, and incubated with 1:1000 dilution of primary goat anti-mouse anti-EGFR antibody and AF488-labeled secondary antibody, as described previously. The sections were washed 3× with PBS, fixed with 4% PFA for 10 min, washed with PBS 1×, and mounted with Prolong Gold reagent containing DAPI (Invitrogen). Confocal microscopy images were collected with DAPI, AF488, and Cy5.5 filters. Adjacent sections were processed for histology (H&E).

For “QRHKPRE (SEQ ID NO: 1) with Cy5.5 fluorophore attached via a GGGSK linker (SEQ ID NO: 18) on the C-terminus [QRH*-Cy5.5]”, the “fluorescence intensity of binding (mean±std)” value (SW480 cells) was 2.4±0.4, the “average fold-change for dysplasia compared to normal” value (human colonic dysplasia) was 19.4 and the “log transformed fluorescence intensity, mean (±std)” value (human colonic dysplasia; dysplasia (n=29)) was 1.04±0.54. For the same substance, the “log transformed fluorescence intensity, mean (±std)” value (human colonic dysplasia; normal (n=15)) was −0.248±0.49, the “co-localization with AF488-labeled anti-EGFR antibody” value (EGFR; HT29 cells, 5 μM) was “co-localize” and the “binding on confocal microscopy” value (EGFR; SW620 cells) was “Minimal binding”. For the same substance, the “fluorescence for binding to dysplastic crypts” value [1] was “increased fluorescence”.

— US20200102349A1, “PEPTIDE REAGENTS AND METHODS FOR DETECTION AND TARGETING OF DYSPLASIA, EARLY CANCER AND CANCER” (THE REGENTS OF THE UNIVERSITY OF MICHIGAN, priority 2014, published 2020)
